Holding throughout (type): in vivo
The subject of test [1] is Lolium perenne (LOLPE). As to the kind of experiment: Example B post-emergence herbicidal test, LOLPE. The settings on record: Lolium perenne, 312 h, rate 250 g/ha, evaluated after 13 days, scale 0-100, read-out: Post-emergence activity LOLPE (100=total damage to plant; 0=no damage to plant). The protocol: (§1) Seeds of a variety of test species were sown in standard soil in pots. After cultivation for one day (pre-emergence) or after 8 days cultivation (post-emergence) under controlled conditions in a glasshouse (at 24/16° C., day/night; 14 hours light; 65% humidity), the plants were sprayed with an aqueous spray solution derived from the formulation of the technical active ingredient in acetone/water (50:50) solution containing 0.5% Tween 20 (polyoxyethelyene sorbitan monolaurate, CAS RN 9005-64-5). The test plants were then grown in a glasshouse under controlled conditions in a glasshouse (at 24/16° C., day/night; 14 hours light; 65% humidity) and watered twice daily. After 13 days for pre and post-emergence, the test was evaluated (100=total damage to plant; 0=no damage to plant). Lolium perenne (LOLPE), Alopecurus myosuroides (ALOMY), Echinochloa crus-galli (ECHCG), Avena fatua (AVEFA) Post-Emergence Activity

Test [2] deals with Lolium perenne (LOLPE). As to the kind of experiment: Example B pre-emergence herbicidal test, LOLPE. The note with it: Lolium perenne, 312 h, rate 250 g/ha, evaluated after 13 days, 100=total damage to plant, 0=no damage to plant. The protocol:
as §1, with “Pre-Emergence” for “Post-Emergence”

The subject of test [3] is Avena fatua (AVEFA). As to the kind of experiment: Example B pre-emergence herbicidal test, AVEFA. The settings on record: Avena fatua, 312 h, rate 250 g/ha, evaluated after 13 days, 100=total damage to plant, 0=no damage to plant. The protocol: as §1, with “Pre-Emergence” for “Post-Emergence”
The test system of test [4] is Avena fatua (AVEFA). The test is described as follows: Example B post-emergence herbicidal test, AVEFA. The note with it: Avena fatua, 312 h, rate 250 g/ha, evaluated after 13 days, scale 0-100, read-out: Post-emergence activity AVEFA (100=total damage to plant; 0=no damage to plant). The protocol: as §1
The test system of test [5] is Echinochloa crus-galli (ECHCG). The test is described as follows: Example B post-emergence herbicidal test, ECHCG. The settings on record: Echinochloa crus-galli, 312 h, rate 250 g/ha, evaluated after 13 days, scale 0-100, read-out: Post-emergence activity ECHCG (100=total damage to plant; 0=no damage to plant). The protocol: as §1
The test system of test [6] is Echinochloa crus-galli (ECHCG). The test is described as follows: Example B pre-emergence herbicidal test, ECHCG. The note with it: Echinochloa crus-galli, 312 h, rate 250 g/ha, evaluated after 13 days, 100=total damage to plant, 0=no damage to plant. The protocol: as §1, with “Pre-Emergence” for “Post-Emergence”
Test [7] relates to Alopecurus myosuroides (ALOMY). The test is described as follows: Example B pre-emergence herbicidal test, ALOMY. The settings on record: Alopecurus myosuroides, 312 h, rate 250 g/ha, evaluated after 13 days, 100=total damage to plant, 0=no damage to plant. The protocol: as §1, with “Pre-Emergence” for “Post-Emergence”
Test [8] has as its system Alopecurus myosuroides (ALOMY). The test is described as follows: Example B post-emergence herbicidal test, ALOMY. The settings on record: Alopecurus myosuroides, 312 h, rate 250 g/ha, evaluated after 13 days, scale 0-100, read-out: Post-emergence activity ALOMY (100=total damage to plant; 0=no damage to plant). The protocol:
as §1

Consider 15 compounds from patent US9096560B2, “5-heterocyclylalkyl-3-hydroxy-2-phenylcyclopent-2-enones as herbicides” (Syngenta Limited, priority 2008, dated 2015).

`Cc1cc(C)c(C2C(=O)C/C(=C\C3CCN(C(=O)OCc4ccccc4)CC3)C2=O)c(C)c1` (stereo not drawn) [Compound T42]: the pest or weed control at 250 g/ha in test [1] came to 20%; in test [2] it was 0%; in test [3], 0%; in test [4], 0%; in test [5], 30%; in test [6], 20%. The pest or weed control at 250 g/ha in test [7] and in test [8] was 0% in each case.

With `Cc1cc(C)c(C2C(=O)CC(CC3CCN(C(=O)OC(C)(C)C)CC3)C2=O)c(C)c1` (stereo not drawn) [Compound T55], the pest or weed control at 250 g/ha in test [1] is 60%; in test [2], 100%; in test [3], 60%; in test [4] it was 50%; in test [5], 70%; in test [6], 90%. Further, the pest or weed control at 250 g/ha stood at 80% in test [7] and 70% in test [8].

On to `CC(=O)OC1=C(c2c(C)cc(C)cc2C)C(=O)/C(=C/C2CCN(C(C)=O)C2)C1` (stereo not drawn) [Compound P42], for which the pest or weed control at 250 g/ha was determined as 40% in test [1]; 40% in test [2]; 0% in test [3]; 70% in test [4]; 70% in test [5]; 30% in test [6]. In addition, the pest or weed control at 250 g/ha in test [7] worked out at 30%; in test [8], 60%.

Consider `Cc1cc(-c2ccc(F)cc2)cc(C)c1C1C(=O)C/C(=C\C2CCOCC2)C1=O` (stereo not drawn) [Compound T61], for which the pest or weed control at 250 g/ha in test [1] stood at 90%; in test [2] it was 90%; in test [3], 80%; in test [4], 100%; in test [5], 100%; in test [6], 90%. Besides, the figures for the pest or weed control at 250 g/ha in test [7] and in test [8] were 70% and 90%, respectively.

Consider `Cc1cc(C)c(C2C(=O)CC(CC3CCN(C(=O)c4c(C)noc4C)C3)C2=O)c(C)c1` (stereo not drawn) [Compound T148], for which the pest or weed control at 250 g/ha in test [1] came to 70%; in test [2], 50%; in test [3], 40%; in test [4], 100%; in test [5] it was 60%; in test [6] it was 30%. The pest or weed control at 250 g/ha in test [7] worked out at 70%; in test [8], 80%.

For `Cc1cc(Br)cc(C)c1C1C(=O)CC(CC2CCOCC2)C1=O` (stereo not drawn) [Compound T138], the pest or weed control at 250 g/ha in test [1] stood at 90%; in test [2] it was 90%; in test [3], 70%; in test [4], 90%; in test [5] it was 70%; in test [6] it was 90%. Further, the results for the pest or weed control at 250 g/ha in test [7] and in test [8] were 80% and 90%, respectively.

In the case of `Cc1cc(C)c(C2=C(OC(=O)c3c(C)noc3C)CC(CC3CCN(C(=O)c4c(C)noc4C)C3)C2=O)c(C)c1` (stereo not drawn) [Compound P63], the pest or weed control at 250 g/ha in test [1] stood at 80%; in test [2], 70%; in test [3], 40%; in test [4] it was 90%; in test [5], 70%; in test [6], 70%. For the same compound, the results for the pest or weed control at 250 g/ha in test [7] and in test [8] were 50% and 90%, respectively.

Consider `Cc1cc(C)c(C2C(=O)CC(CC3CCN(C(=O)C(F)(F)C(F)F)CC3)C2=O)c(C)c1` (stereo not drawn) [Compound T161], for which the pest or weed control at 250 g/ha in test [1] was found to be 100%; in test [2] it was 90%; in test [3], 60%; in test [4] it was 90%; in test [5], 90%; in test [6] it was 100%. Besides, the pest or weed control at 250 g/ha in test [7] came to 30%; in test [8] it was 70%.

Turning to `CCCCS(=O)(=O)N1CCC(CC2CC(=O)C(c3c(C)cc(C)cc3C)C2=O)CC1` (stereo not drawn) [Compound T96], the pest or weed control at 250 g/ha was 60% in test [1]; 60% in test [2]; 10% in test [3]; 40% in test [4]; 40% in test [5]; 20% in test [6]. The pest or weed control at 250 g/ha in test [7] came out at 20%; in test [8] it was 60%.

With `Cc1cc(-c2ccc(Cl)cc2F)cc(C)c1C1C(=O)C/C(=C\C2CCOCC2)C1=O` (stereo not drawn) [Compound T132], the pest or weed control at 250 g/ha in test [1] is 70%; in test [2], 70%; in test [3], 70%; in test [4], 80%; in test [5], 100%; in test [6], 90%. Besides, the results for the pest or weed control at 250 g/ha in test [7] and in test [8] were 20% and 70%, respectively.

On to `COc1ccc(C(=O)N2CCC(CC3CC(=O)C(c4c(C)cc(C)cc4C)C3=O)CC2)cc1` (stereo not drawn) [Compound T97], for which the pest or weed control at 250 g/ha turned out to be 60% in test [1]; 70% in test [2]; 30% in test [3]; 70% in test [4]; 80% in test [5]; 60% in test [6]. Also, the pest or weed control at 250 g/ha was found to be 30% in test [7] and 70% in test [8].

For the compound `Cc1cc(C)c(C2C(=O)CC(CC3CCN(C(=O)c4ccccc4C)CC3)C2=O)c(C)c1` (stereo not drawn) [Compound T72], the pest or weed control at 250 g/ha is 80% in test [1]; 60% in test [2]; 20% in test [3]; 80% in test [4]; 90% in test [5]; 80% in test [6]. The pest or weed control at 250 g/ha in test [7] turned out to be 30%; in test [8], 50%.

Consider `CCOC(=O)N1CCC(CC2CC(=O)C(c3c(C)cc(C)cc3C)C2=O)CC1` (stereo not drawn) [Compound T108], for which the pest or weed control at 250 g/ha in test [1] was 70%; in test [2], 50%; in test [3] it was 40%; in test [4] it was 70%; in test [5], 40%; in test [6], 60%. Moreover, the pest or weed control at 250 g/ha in test [7] turned out to be 10%; in test [8], 70%.

Turning to `Cc1cc(C)c(C2=C(OC(=O)OC(C)(C)C)C/C(=C\C3CCN(C(=O)OC(C)(C)C)CC3)C2=O)c(C)c1` [Compound P53], the pest or weed control at 250 g/ha in test [1] is 20%; in test [2], 100%; in test [3] it was 70%; in test [4] it was 40%; in test [5] it was 70%; in test [6], 90%. The pest or weed control at 250 g/ha in test [7] and in test [8] was 60% in each case.

Consider `Cc1cc(C)c(C2C(=O)CC(CC3CCN(C(=O)Cc4ccccc4)CC3)C2=O)c(C)c1` (stereo not drawn) [Compound T82], for which the pest or weed control at 250 g/ha in test [1] worked out at 90%; in test [2] it was 90%; in test [3], 50%; in test [4], 100%; in test [5], 80%; in test [6], 60%. The pest or weed control at 250 g/ha in test [7] is 50%; in test [8] it was 90%.
